# Test results reported in patent publication US8173635B2, “Kinase inhibitors” (Vertex Pharmaceuticals Incorporated, priority 2007, dated 2012).
# pKi: −log10 of the molar value.
# Legend:
# Format in all cases: biochemical
# PKC theta kinase = PKC theta kinase (Homo sapiens, UniProt Q04759); experiment: PKC theta kinase inhibition, coupled-enzyme NADH absorbance assay (Ki); settings: 240 μM ATP, 18 nM PKC theta, 30° C.; read-out: Ki PKC theta
# Procedure, shortened: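 Enzyme and compound equilibrated 10 min at 30 °C before reaction in HEPES pH 7.5 buffer with MgCl2, NaCl, EDTA and Brij. Activity tracked as NADH loss at 340 nm through a coupled system. Initial-rate data fitted by non-linear regression to give Ki.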
# PKC delta kinase = PKC delta kinase (Homo sapiens, UniProt Q05655); experiment: PKC delta kinase inhibition, coupled-enzyme NADH absorbance assay (Ki); settings: 150 μM ATP, 46 nM PKC delta, 30° C.; read-out: Ki PKC delta
# Sequence of PKC delta kinase (Q05655 whole entry): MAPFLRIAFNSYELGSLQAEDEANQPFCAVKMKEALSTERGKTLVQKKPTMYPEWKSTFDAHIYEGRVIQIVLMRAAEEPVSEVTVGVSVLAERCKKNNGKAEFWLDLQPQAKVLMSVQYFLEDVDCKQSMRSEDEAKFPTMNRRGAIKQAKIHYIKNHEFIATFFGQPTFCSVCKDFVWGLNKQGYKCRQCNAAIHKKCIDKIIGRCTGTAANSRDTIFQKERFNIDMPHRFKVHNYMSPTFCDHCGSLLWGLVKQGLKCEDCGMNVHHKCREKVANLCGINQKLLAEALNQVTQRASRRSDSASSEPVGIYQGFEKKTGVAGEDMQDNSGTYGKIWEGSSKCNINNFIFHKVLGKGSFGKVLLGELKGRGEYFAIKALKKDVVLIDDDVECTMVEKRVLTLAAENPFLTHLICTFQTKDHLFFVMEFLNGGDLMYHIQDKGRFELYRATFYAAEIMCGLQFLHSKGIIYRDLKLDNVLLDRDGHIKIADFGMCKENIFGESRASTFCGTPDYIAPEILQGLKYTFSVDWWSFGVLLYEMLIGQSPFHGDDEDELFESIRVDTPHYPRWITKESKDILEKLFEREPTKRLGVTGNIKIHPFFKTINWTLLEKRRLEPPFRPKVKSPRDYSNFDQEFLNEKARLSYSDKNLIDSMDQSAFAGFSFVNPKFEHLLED
# Procedure, shortened: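 Assay buffer was 100 mM HEPES pH 7.5, 10 mM MgCl2, 25 mM NaCl, 0.1 mM EDTA, 0.01% Brij. Enzyme buffer was equilibrated with compound in DMSO for 10 min at 30 °C. Ki values were derived by non-linear regression of initial rate data.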
# PKC alpha kinase = PKC alpha kinase (Homo sapiens, UniProt P17252); experiment: PKC alpha kinase inhibition, coupled-enzyme NADH absorbance assay (Ki); settings: 130 μM ATP, 4.5 nM PKC alpha, 30° C.; read-out: Ki PKC alpha
# Sequence of PKC theta kinase (Q04759 whole entry): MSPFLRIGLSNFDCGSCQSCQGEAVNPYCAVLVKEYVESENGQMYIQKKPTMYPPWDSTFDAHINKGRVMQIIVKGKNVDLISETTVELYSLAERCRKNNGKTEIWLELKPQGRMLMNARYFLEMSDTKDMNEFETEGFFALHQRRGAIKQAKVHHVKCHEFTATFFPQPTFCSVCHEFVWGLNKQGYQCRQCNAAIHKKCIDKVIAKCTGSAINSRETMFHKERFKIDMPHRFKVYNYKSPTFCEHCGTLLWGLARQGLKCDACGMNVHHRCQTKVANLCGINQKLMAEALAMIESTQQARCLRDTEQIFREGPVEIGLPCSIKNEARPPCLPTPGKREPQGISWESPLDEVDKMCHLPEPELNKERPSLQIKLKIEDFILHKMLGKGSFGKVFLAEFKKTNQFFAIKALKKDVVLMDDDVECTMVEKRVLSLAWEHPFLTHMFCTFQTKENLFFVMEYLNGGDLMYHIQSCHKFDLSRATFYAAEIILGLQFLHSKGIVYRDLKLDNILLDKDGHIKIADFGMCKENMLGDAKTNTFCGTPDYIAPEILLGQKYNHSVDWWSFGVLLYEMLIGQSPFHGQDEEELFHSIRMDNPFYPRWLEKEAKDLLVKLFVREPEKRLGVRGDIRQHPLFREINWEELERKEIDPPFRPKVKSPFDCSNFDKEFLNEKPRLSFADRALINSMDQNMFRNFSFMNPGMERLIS
SMILES,pKi (PKC theta kinase),pKi (PKC delta kinase),pKi (PKC alpha kinase)
FC(F)C1(c2cccc(-c3ccnc4[nH]ncc34)c2)CCNC1 (stereo not drawn) [Compound 201],> 7.30,> 6.30,> 6.30
CC(C#N)(Cc1ccccn1)c1cccc(-c2ccnc3[nH]ncc23)c1 (stereo not drawn) [Compound 115],< 6.15,< 5.70,< 5.92
COCCC(C)(CN)c1cccc(-c2ccnc3[nH]ncc23)c1 (stereo not drawn) [Compound 146],> 7.30,> 6.30,> 5.55
CC(N)c1cccc(-c2ccnc3[nH]ncc23)c1 (stereo not drawn) [Compound 246],> 6.30,> 5.55,< 5.92
NCC1(c2cc(F)cc(-c3ccnc4[nH]ncc34)c2)CCC1 [Compound 188],> 7.30,> 5.55,> 6.30
"C=CC1(c2cccc(-c3ccnc4[nH]ncc34)c2)CCNC1 (stereo not drawn) [Compound 193, 4-(3-(3-Vinylpyrrolidin-3-yl)phenyl)-1H-pyrazolo[3,4-b]pyridine]",> 6.30,> 6.30,> 6.30
N#CC1(c2cccc(-c3ccnc4[nH]ncc34)c2)CC(F)(F)C1 [Compound 226],< 6.15,< 5.92,< 5.92
CCC(C)(CN)c1cc(CCCO)cc(-c2ccnc3[nH]ncc23)c1 (stereo not drawn) [Compound 156],> 7.30,> 5.55,> 6.30
N#CC1(c2cc(-c3ccnc4[nH]nc(C(F)(F)F)c34)cc(C(F)(F)CN)c2)CC1 [Compound 311],> 7.30,> 6.30,> 6.30
NCC1(c2cc(F)cc(-c3ccnc4[nH]nc(C5CC5)c34)c2)CCC1 [Compound 267],> 7.30,> 6.30,> 6.30
CCC(C)(CN)c1cc(CC(C)C)cc(-c2ccnc3[nH]ncc23)c1 (stereo not drawn) [Compound 137],> 6.30,< 5.55,< 5.55
CCC(C)(CN)c1cc(Br)cc(-c2ccnc3[nH]ncc23)c1 (stereo not drawn) [Compound 167],> 7.30,> 6.30,> 6.30
NCC1(c2cccc(-c3ccnc4[nH]ncc34)c2)CCCCC1 [Compound 177],> 7.30,> 6.30,> 5.55
"CCC(C)(CN)c1cccc(-c2ccnc3[nH]nc(C)c23)c1 (stereo not drawn) [Compound 212, 2-methyl-2-(3-(3-methyl-1H-pyrazolo[3,4-b]pyridin-4-yl)phenyl)butan-1-amine]",> 7.30,> 7.30,> 7.30
CCC(C)(CN)c1cc(-c2ccnc3[nH]ncc23)cc(C(F)F)c1 (stereo not drawn) [Compound 162],> 7.30,> 6.30,> 6.30
CCCc1cc(-c2ccnc3[nH]ncc23)cc(C(C)(C)CC#N)c1 [Compound 218],> 6.30,< 5.70,> 5.55
CC(CN)(c1cccc(-c2ccnc3[nH]ncc23)c1)C1CCCC1 (stereo not drawn) [Compound 46],> 7.30,> 6.30,> 6.30
N#C[C@]1(c2cccc(-c3ccnc4[nH]ncc34)c2)C[C@@H](N)C1 [Compound 249],> 7.30,> 5.55,> 6.30
Cc1cc(-c2ccnc3[nH]ncc23)cc(C(N)C2CC2(F)F)c1 (stereo not drawn) [Compound 250],> 6.30,> 5.55,> 6.30
COCC(C)(CN)c1cccc(-c2ccnc3[nH]ncc23)c1 (stereo not drawn) [Compound 150],> 7.30,> 6.30,> 5.55

SMILES,pKi (PKC theta kinase),pKi (PKC delta kinase),pKi (PKC alpha kinase)
CC(C)C(C)(C#N)c1cccc(-c2ccnc3[nH]ncc23)c1 (stereo not drawn) [Compound 70],> 6.30,> 5.55,> 5.55
CC(O)c1cc(-c2ccnc3[nH]ncc23)cc(C(C)(C)CN)c1 (stereo not drawn) [Compound 39],> 6.30,< 5.55,< 5.55
N#CC1(c2cccc(-c3ccnc4[nH]nc(Cl)c34)c2)CC1 [Compound 205],> 7.30,> 7.30,> 6.30
c1cc(-c2ccnc3[nH]ncc23)cc(C2CCNCC2)c1 [Compound 230],> 5.55,> 5.55,> 5.55
CCC(CC)(CN)c1cccc(-c2ccnc3[nH]ncc23)c1 [Compound 47],> 7.30,> 6.30,> 6.30
OCC1(c2cccc(-c3ccnc4[nH]nc(C(F)(F)F)c34)c2)CC1 [Compound 290],> 7.30,> 6.30,> 5.55
C=Cc1cc(-c2ccnc3[nH]ncc23)cc(C(C)(C)C#N)c1 [Compound 55],> 6.30,> 5.55,> 5.55
CC1(c2cccc(-c3ccnc4[nH]ncc34)c2)CCNC1 (stereo not drawn) [Compound 195],> 7.30,> 6.30,> 5.55
CC(O)c1cccc(-c2ccnc3[nH]ncc23)c1 (stereo not drawn) [Compound 244],< 6.15,< 5.92,< 5.92
CCC(C#N)c1cc(C)cc(-c2ccnc3[nH]ncc23)c1 (stereo not drawn) [Compound 86],> 6.30,< 5.55,> 5.55
CCCc1cc(-c2ccnc3[nH]ncc23)cc(C2(CC#N)CCC2)c1 [Compound 125],> 6.30,< 5.70,< 5.92
CC(CN)(Cc1ccccn1)c1cccc(-c2ccnc3[nH]ncc23)c1 (stereo not drawn) [Compound 175],> 6.30,< 5.70,< 5.92
CCC(C)(CO)c1cccc(-c2ccnc3[nH]nc(C(F)(F)F)c23)c1 (stereo not drawn) [Compound 318],> 7.30,> 7.30,> 6.30
CCC(O)c1cccc(-c2ccnc3[nH]ncc23)c1 (stereo not drawn) [Compound 77],> 5.55,< 5.55,< 5.55
CCC(C)(C#N)c1cc(CCCO)cc(-c2ccnc3[nH]ncc23)c1 (stereo not drawn) [Compound 103],> 7.30,< 5.70,> 5.55
CCSc1cc(-c2ccnc3[nH]ncc23)cc(C(C)(CC)CN)c1 (stereo not drawn) [Compound 166],> 7.30,> 5.55,> 6.30
OCC1(c2cccc(-c3ccnc4[nH]ncc34)c2)CCC1 [Compound 242],> 6.30,< 5.70,< 5.92
NCC1(c2cccc(-c3ccnc4[nH]ncc34)c2)COC1 [Compound 233],> 6.30,> 5.55,< 5.92
N#CC1(c2cc(CCO)cc(-c3ccnc4[nH]ncc34)c2)CC1 [Compound 114],> 7.30,< 5.70,< 5.92
COCCC(C)(CN)c1cccc(-c2ccnc3[nH]nc(C(F)(F)F)c23)c1 (stereo not drawn) [Compound 285],> 7.30,> 6.30,> 6.30

SMILES,pKi (PKC theta kinase),pKi (PKC delta kinase),pKi (PKC alpha kinase)
N#CC1(c2cccc(-c3ccnc4[nH]nc(Cl)c34)c2)CCC1 [Compound 259],> 7.30,> 6.30,> 6.30
N#CCCc1cc(-c2ccnc3[nH]ncc23)cc(C2(C#N)CC2)c1 [Compound 240],> 6.30,< 5.70,< 5.92
CCCc1cc(-c2ccnc3[nH]ncc23)cc(C2(CN)CCCC2)c1 [Compound 147],> 6.30,< 5.55,< 5.55
CC#CCC(C)(C#N)c1cccc(-c2ccnc3[nH]ncc23)c1 (stereo not drawn) [Compound 104],> 6.30,> 5.55,> 5.55
NCC1(c2cccc(-c3ccnc4[nH]ncc34)c2)CCC1 [Compound 49],> 7.30,> 6.30,> 5.55
CC(CN)(Cc1cccnc1)c1cccc(-c2ccnc3[nH]ncc23)c1 (stereo not drawn) [Compound 171],> 7.30,> 6.30,> 6.30
Cc1cnc2[nH]ncc2c1-c1cccc(C(C)(C)C#N)c1 [Compound 219],< 6.15,< 5.70,< 5.92
N#CC(c1cccc(-c2ccnc3[nH]ncc23)c1)N1CCOCC1 (stereo not drawn) [Compound 320],< 6.15,< 5.92,< 5.92
CCC(CN)c1cccc(-c2ccnc3[nH]ncc23)c1 (stereo not drawn) [Compound 232],> 7.30,> 6.30,> 6.30
CCC1(c2cccc(-c3ccnc4[nH]ncc34)c2)CNC(=O)O1 (stereo not drawn) [Compound 254],> 7.30,> 6.30,> 6.30
CCc1cc(-c2ccnc3[nH]nc(Cl)c23)cc(C2(CN)CCC2)c1 [Compound 211],> 7.30,> 5.55,> 6.30
N#CC(CCO)c1cccc(-c2ccnc3[nH]ncc23)c1 (stereo not drawn) [Compound 224],> 6.30,< 5.70,< 5.92
CC(C)CC(C)(C#N)c1cccc(-c2ccnc3[nH]ncc23)c1 (stereo not drawn) [Compound 71],> 5.55,> 5.55,> 5.55
CCC1(c2cc(C)cc(-c3ccnc4[nH]nc(C(F)(F)F)c34)c2)CNC(=O)O1 (stereo not drawn) [Compound 292],> 7.30,< 5.92,> 6.30
C#CCC(C)(C#N)c1cccc(-c2ccnc3[nH]ncc23)c1 (stereo not drawn) [Compound 91],> 6.30,> 5.55,> 6.30
CCC(C)(C#N)c1cc(C=O)cc(-c2ccnc3[nH]ncc23)c1 (stereo not drawn) [Compound 120],> 6.30,< 5.70,< 5.92
CCC(C)(C#N)c1cc(-c2ccnc3[nH]ncc23)cc(C(F)F)c1 (stereo not drawn) [Compound 110],> 7.30,< 5.70,> 6.30
COCCC(CN)c1cccc(-c2ccnc3[nH]nc(C(F)(F)F)c23)c1 (stereo not drawn) [Compound 284],> 7.30,> 6.30,> 5.55
COc1cc(-c2ccnc3[nH]ncc23)cc(C(C)(C)CN)c1 [Compound 142],> 6.30,> 5.55,> 5.55
